Consider 2 molecules from ChEMBL document CHEMBL5053549, “Discovery of Potent and Novel Dual PARP/BRD4 Inhibitors for Efficient Treatment of Pancreatic Cancer” (J Med Chem, 2021).

Experiment [1] relates to SW1990. Put plainly: Induction of cell cycle arrest in human SW1990 cells assessed as accumulation of cells at G0/G1 phase at 1 uM incubated for 4 days by propidium iodide staining based flow cytometry (reference value: 64.79%). The format is functional. To be noted: time 4 day. In general terms: In flow cytometry, cells or beads pass a laser one at a time.
In experiment [2] the test system is Mus musculus. In words: Inhibition of homologous recombinant repair in human SW1990 cells xenografted in BALB/c mouse assessed as reduction in olaparib-induced FOXM1 expression at 15 mg/kg, ip after 4 days by immunohistochemical analysis. Conditions: time 4.0 day. The format is functional, organism-based.
Experiment [3] relates to SW1990. Put plainly: Induction of cell cycle arrest in human SW1990 cells assessed as accumulation of cells at G2/M phase at 1 uM incubated for 4 days by propidium iodide staining based flow cytometry (reference value: 5.89%). Conditions: time 4 day. The format is functional.
The test system of experiment [4] is SW1990. In words: Inhibition of homologous recombinant repair in human SW1990 cells assessed as reduction in FOXM1 expression at 1 to 2 uM after 4 days by Q-PCR analysis. In kind it is functional, cell-based. To be noted: dose 1-2 µM, time 4.0 day.
Experiment [5] has as its system Mus musculus. In words: Inhibition of homologous recombinant repair in human SW1990 cells xenografted in BALB/c mouse assessed as reduction in FOXM1 expression at 45 mg/kg, ip after 4 days by immunohistochemical analysis. The format is functional, organism-based. To be noted: time 4.0 day.
In experiment [6] the target is Serine/threonine-protein kinase PLK1 (Homo sapiens, UniProt P53350). In words: Inhibition of recombinant PLK1 (unknown origin) […] measured after 40 mins by ADP-glo luminescence kinase assay. (ADP-Glo turns the ADP formed in a reaction into a luminescent signal.)
In experiment [7] the test system is SW1990. In words: Induction of autophagy in human SW1990 cells assessed as increase in pAMPKalpha expression at 1 to 2 uM incubated for 4 days by immunofluorescence assay. The format is functional, cell-based. Conditions: dose 1-2 µM, time 4.0 day.
Experiment [8] relates to SW1990. Put plainly: Antitumor activity against human SW1990 cells xenografted in BALB/c mouse assessed as inhibition of Ki67 expression at 45 mg/kg, ip administered for 28 consecutive days by immunohistochemical analysis. The format is functional, organism-based. To be noted: time 28.0 day.
Experiment [9] deals with SW1990. In words: Induction of autophagy in human SW1990 cells assessed as increase in Beclin1 expression at 1 to 2 uM incubated for 4 days by immunofluorescence assay. The format is functional, cell-based. Conditions: dose 1-2 µM, time 4.0 day.
The target in experiment [10] is Bromodomain-containing protein 2 (Homo sapiens, UniProt P25440). In words: Inhibition of recombinant BRD2 BD2 (unknown origin) incubated for 120 mins by TR-FRET assay. Background: In TR-FRET formats the signal depends on donor and acceptor labels being close together.
The test system of experiment [11] is SW1990. In words: Induction of autophagy in human SW1990 cells assessed as reduction in Bcl-2 expression at 1 to 2 uM incubated for 4 days by immunofluorescence assay. In kind it is functional, cell-based. Conditions: dose 1-2 µM, time 4.0 day.
Experiment [12] concerns SW1990. Put plainly: Induction of apoptosis in human SW1990 cells assessed as early apoptotic cells at 2 uM after 4 days by Annexin V-FITC and propidium iodide staining based flow cytometry (reference value: […]%). In kind it is functional. Conditions: time 4 day.
Experiment [13] concerns SW1990. In words: Induction of autophagy in human SW1990 cells xenografted in BALB/c mouse assessed as increase in beclin1 expression at 45 mg/kg, ip after 4 days by Western blot analysis. Conditions: time 4.0 day. The format is functional, organism-based.
In experiment [14] the target is T1, Bromodomain-containing protein 4 (Homo sapiens, UniProt O60885). In words: Inhibition of BRD4 expression in human SW1990 cells at 1 uM after 4 days by Q-PCR analysis. The format is cell-based. Conditions: time 4.0 day.
Experiment [15] deals with Mus musculus. Put plainly: Inhibition of homologous recombinant repair in human SW1990 cells xenografted in BALB/c mouse assessed as reduction in Rad51 expression at 45 mg/kg, ip after 4 days by immunohistochemical analysis. In kind it is functional, organism-based. Conditions: time 4.0 day.
The target in experiment [16] is Poly [ADP-ribose] polymerase 1 (Homo sapiens, UniProt P09874). Put plainly: Inhibition of PARP1 (unknown origin) incubated for 45 mins in presence of biotinylated-NAD+ by microplate reader analysis.
Experiment [17] relates to Mus musculus. Put plainly: Effect on cell cycle progression in human SW1990 cells xenografted in BALB/c mouse assessed as reduction in CCND1 expression at 45 mg/kg, ip after 4 days by Q-PCR analysis. In kind it is functional, organism-based. To be noted: time 4.0 day.
For experiment [18], the target named is T1, Bromodomain-containing protein 4. In words: Inhibition of recombinant BRD4 BD1 (unknown origin) incubated for 120 mins by TR-FRET assay.
In experiment [19] the test system is SW1990. In words: Effect on cell cycle progression in human SW1990 cells assessed as reduction in PLK1 expression at 1 to 2 uM after 4 days by Western blot analysis. In kind it is functional, cell-based. To be noted: dose 1-2 µM, time 4.0 day.
The test system of experiment [20] is Mus musculus. Put plainly: In vivo inhibition of BRD4 expression in human […] cells xenografted in BALB/c mouse at 45 mg/kg, ip administered for 28 consecutive days by Q-PCR analysis. In kind it is functional, organism-based. Conditions: time 28.0 day.
Experiment [21] concerns SW1990. In words: Effect on cell cycle progression in human SW1990 cells assessed as reduction in CDK6 expression at 1 to 2 uM after 4 days by Q-PCR analysis. To be noted: dose 1-2 µM, time 4.0 day. In kind it is functional, cell-based.
Experiment [22] deals with SW1990. In words: Induction of apoptosis in human SW1990 cells assessed as late apoptotic cells at 1 uM after 4 days by Annexin V-FITC and propidium iodide staining based flow cytometry (reference value: 6.22%). In kind it is functional. Conditions: time 4 day.
For experiment [23], the system named is SW1990. Put plainly: Inhibition of homologous recombinant repair in human SW1990 cells assessed as increase in […] expression at 1 to 2 uM after 4 days by Q-PCR analysis. To be noted: dose 1-2 µM, time 4.0 day. The format is functional, cell-based.
Experiment [24] concerns SW1990. Put plainly: Inhibition of homologous recombinant repair in human SW1990 cells assessed as increase in […] expression at 1 to 2 uM after 4 days by Western blot analysis. In kind it is functional, cell-based. Conditions: dose 1-2 µM, time 4.0 day.
Experiment [25] has as its system SW1990. In words: Inhibition of homologous recombinant repair in human SW1990 cells assessed as reduction in Rad51 expression at 4 uM after 4 days by Q-PCR analysis. The format is functional, cell-based. Conditions: time 4.0 day.
For experiment [26], the system named is SW1990. In words: Inhibition of homologous recombinant repair in human SW1990 cells assessed as reduction in Olaparib-induced Rad51 expression at 1 uM after 4 days in presence of Olaparib by Q-PCR analysis. In kind it is functional, cell-based. To be noted: time 4.0 day.
Experiment [27] has as its system SW1990. Put plainly: Induction of DNA damage in human SW1990 cells assessed as increase in gammaH2AX at 1 uM incubated for 4 days in presence of Olaparib by immunofluorescence assay. The format is functional, cell-based. Conditions: time 4.0 day.
Experiment [28] has as its system SW1990. In words: Inhibition of homologous recombinant repair in human SW1990 cells assessed as reduction in Olaparib-induced Rad51 expression at 1 uM after 4 days in presence of Olaparib by Western blot analysis. To be noted: time 4.0 day. The format is functional, cell-based.
The subject of experiment [29] is SW1990. In words: Inhibition of homologous recombinant repair in human SW1990 cells assessed as reduction in Olaparib-induced BRCA1 expression at 1 uM after 4 days in presence of Olaparib by Western blot analysis. The format is functional, cell-based. To be noted: time 4.0 day.
The test system of experiment [30] is SW1990. Put plainly: Induction of apoptosis in human SW1990 cells assessed as necrotic cells at 1 uM after 4 days in presence of 3 uM Olaparib by Annexin V-FITC and propidium iodide staining based flow cytometry (reference value: 1.89%). In kind it is functional. Conditions: time 4 day.
For experiment [31], the system named is Mus musculus. In words: In vivo inhibition of PARP1 expression in human […] cells xenografted in BALB/c mouse assessed as reversal of Olaparib-induced PARP1 accumulation at 15 mg/kg, ip administered for 28 consecutive days in presence of 45 mg/kg Olaparib by Western blot analysis. The format is functional, organism-based. Conditions: time 28.0 day.
The test system of experiment [32] is SW1990. Put plainly: Induction of apoptosis in human SW1990 cells assessed as late apoptotic cells at 1 uM after 4 days in presence of 3 uM Olaparib by Annexin V-FITC and propidium iodide staining based flow cytometry (reference value: 6.22%). In kind it is functional. Conditions: time 4 day.
Experiment [33] deals with SW1990. In words: Inhibition of colony formation in human SW1990 cells at 0.5 uM after 14 days in presence of 1.5 uM Olaparib by crystal violet staining based microscopic analysis. The format is functional, cell-based. To be noted: time 14.0 day.

Calls of active or inactive are those of the source. The calls are words filed in the database; no cut-off is given here.

Bromodomain-containing protein 2, sequence (P25440 whole entry): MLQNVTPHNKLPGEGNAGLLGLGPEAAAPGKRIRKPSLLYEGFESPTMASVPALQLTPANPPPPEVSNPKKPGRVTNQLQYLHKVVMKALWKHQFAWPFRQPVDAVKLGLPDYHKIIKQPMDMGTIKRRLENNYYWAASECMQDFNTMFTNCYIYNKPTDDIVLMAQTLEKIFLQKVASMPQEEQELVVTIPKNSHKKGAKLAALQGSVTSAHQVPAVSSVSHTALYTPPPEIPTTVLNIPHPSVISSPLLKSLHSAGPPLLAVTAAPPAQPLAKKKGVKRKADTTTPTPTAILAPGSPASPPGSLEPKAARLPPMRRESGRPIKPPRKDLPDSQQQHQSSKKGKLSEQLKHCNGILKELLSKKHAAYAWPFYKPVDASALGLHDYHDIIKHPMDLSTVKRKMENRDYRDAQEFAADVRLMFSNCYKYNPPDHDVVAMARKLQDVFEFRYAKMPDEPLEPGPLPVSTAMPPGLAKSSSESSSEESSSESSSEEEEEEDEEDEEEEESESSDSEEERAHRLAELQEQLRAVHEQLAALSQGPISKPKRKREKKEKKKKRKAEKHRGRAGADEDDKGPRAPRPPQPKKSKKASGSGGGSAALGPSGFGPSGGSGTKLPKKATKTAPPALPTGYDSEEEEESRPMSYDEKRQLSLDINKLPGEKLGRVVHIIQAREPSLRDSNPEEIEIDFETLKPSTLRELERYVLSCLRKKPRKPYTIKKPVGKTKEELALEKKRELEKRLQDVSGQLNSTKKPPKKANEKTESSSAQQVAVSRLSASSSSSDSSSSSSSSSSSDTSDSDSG
Serine/threonine-protein kinase PLK1, sequence (P53350 whole entry): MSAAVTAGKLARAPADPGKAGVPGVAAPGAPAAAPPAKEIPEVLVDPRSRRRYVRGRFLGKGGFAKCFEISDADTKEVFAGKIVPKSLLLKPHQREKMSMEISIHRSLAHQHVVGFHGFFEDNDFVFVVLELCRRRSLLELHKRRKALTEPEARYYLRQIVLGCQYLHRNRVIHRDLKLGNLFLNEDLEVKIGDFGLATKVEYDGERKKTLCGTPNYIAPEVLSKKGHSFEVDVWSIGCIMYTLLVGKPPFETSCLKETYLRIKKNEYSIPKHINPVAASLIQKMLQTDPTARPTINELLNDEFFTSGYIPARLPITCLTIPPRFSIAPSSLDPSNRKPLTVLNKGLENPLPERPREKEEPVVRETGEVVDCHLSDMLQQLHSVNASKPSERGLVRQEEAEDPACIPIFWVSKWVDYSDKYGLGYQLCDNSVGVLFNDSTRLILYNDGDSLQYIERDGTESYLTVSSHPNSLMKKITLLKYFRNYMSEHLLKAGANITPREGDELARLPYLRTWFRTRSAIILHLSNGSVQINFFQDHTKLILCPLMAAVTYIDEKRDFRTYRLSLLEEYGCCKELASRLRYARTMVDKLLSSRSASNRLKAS
Poly [ADP-ribose] polymerase 1, sequence (P09874 whole entry): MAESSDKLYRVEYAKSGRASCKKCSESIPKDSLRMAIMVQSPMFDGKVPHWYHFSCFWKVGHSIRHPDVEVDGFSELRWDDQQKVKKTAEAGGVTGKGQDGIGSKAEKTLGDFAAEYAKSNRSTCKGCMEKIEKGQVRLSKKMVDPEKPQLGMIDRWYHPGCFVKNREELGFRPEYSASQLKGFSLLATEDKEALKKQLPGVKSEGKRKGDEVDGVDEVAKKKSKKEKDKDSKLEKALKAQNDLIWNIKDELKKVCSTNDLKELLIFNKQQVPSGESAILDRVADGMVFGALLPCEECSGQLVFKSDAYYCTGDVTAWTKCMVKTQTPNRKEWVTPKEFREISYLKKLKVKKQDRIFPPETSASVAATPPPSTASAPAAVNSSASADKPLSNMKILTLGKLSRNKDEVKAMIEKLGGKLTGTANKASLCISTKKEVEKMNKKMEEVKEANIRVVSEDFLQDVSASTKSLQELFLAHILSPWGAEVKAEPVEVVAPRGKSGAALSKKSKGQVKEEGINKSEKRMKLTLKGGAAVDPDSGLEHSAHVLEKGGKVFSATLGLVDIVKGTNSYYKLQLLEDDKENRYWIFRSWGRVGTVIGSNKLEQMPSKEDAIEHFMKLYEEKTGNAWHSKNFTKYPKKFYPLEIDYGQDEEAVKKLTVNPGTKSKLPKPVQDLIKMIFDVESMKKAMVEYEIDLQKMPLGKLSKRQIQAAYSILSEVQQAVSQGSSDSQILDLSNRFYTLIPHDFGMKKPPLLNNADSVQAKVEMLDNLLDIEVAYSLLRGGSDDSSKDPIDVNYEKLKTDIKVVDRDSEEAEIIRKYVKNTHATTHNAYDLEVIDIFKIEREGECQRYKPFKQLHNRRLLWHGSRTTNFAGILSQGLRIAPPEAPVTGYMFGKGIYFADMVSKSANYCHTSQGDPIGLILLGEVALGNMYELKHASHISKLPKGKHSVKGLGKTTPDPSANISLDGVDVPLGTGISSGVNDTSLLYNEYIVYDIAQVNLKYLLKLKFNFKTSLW

By IC50 is commonly meant the midpoint of a concentration-inhibition curve. Consider `CC[C@@H]1C(=O)N(C)c2cnc(N(C)c3ccc(-c4nc5c(C(N)=O)cccc5[nH]4)cc3OC)nc2N1C1CCCC1`, for which the Activity is 74.76% in the experiment on SW1990 [1], 10.5% in the experiment with SW1990 [3], 2.81% in the experiment on SW1990 [12] and 28.4% in the experiment on SW1990 [22]. The inhibition result (in the experiment with Mus musculus [2]; in the experiment on SW1990 [4]; in the experiment on Mus musculus [5]; in experiment [14]; in the experiment on Mus musculus [15]; with SW1990 [23]) was “Active” each time. Moreover, the inhibition entry with SW1990 [24] is “Active”. In addition, the 50% inhibitory concentration (IC50) came to 2030 nM in [6], 168 nM in [10], 13 nM in [16] and 75 nM in [18]. Further, the result in the experiment on SW1990 [7], in the experiment with SW1990 [8], in the experiment with SW1990 [9], with SW1990 [11], with SW1990 [13] and with Mus musculus [17] was Active. The result in the experiment with SW1990 [19], in the experiment with Mus musculus [20] and in the experiment on SW1990 [21] was Active.
Turning to `Cc1sc2c(c1C)C(c1ccc(Cl)cc1)=N[C@@H](CC(=O)OC(C)(C)C)c1nnc(C)n1-2`, the inhibition entry in the experiment on SW1990 [25], with SW1990 [26], in the experiment on SW1990 [28], in the experiment with SW1990 [29] and with SW1990 [33] was “Active” each time. Further, the outcome in the experiment with SW1990 [27] and in the experiment with Mus musculus [31] was Active. The Activity with SW1990 [30] was 5.53%; in the experiment on SW1990 [32] it was 36.2%.
